Experimental data as given in US20160220710A1, “COMPOSITIONS AND METHODS FOR DELIVERING PHARMACEUTICAL AGENTS” (THE REGENTS OF THE UNIVERSITY OF MICHIGAN, priority 2015, published 2016).
“Also recorded” adds a separate entry of the source. Like-named read-outs stand apart in the source and are kept apart here.

What was measured:
alveolar macrophages = tested on: alveolar macrophages; parameters: species or system mice; conditions: mouse, in vivo, 6 weeks
Protocol: (§1) Clofazimine (CFZ, Sigma-Aldrich, C8895) was prepared in sesame oil (Shirakiku, Japan, or Roland, China) and Powdered Lab Diet 5001 (PMI International, Inc., St. Louis, Mo.) and orally administrated to Wild-type (WT) C57BL/6 mice or IL-1RA^−/− (4-5 week old, Jackson Laboratory, Bar Harbor, Me.) for up to 8 weeks ad libitum as previously described (Baik et al., 2013, supra; Baik et al., 2011, supra). Control mice were fed with the same diet without CFZ. The animal protocol was approved by the University of Michigan's Animal Care and Use Committee in accordance with the National Institutes of Health guidelines (UCUCA #PRO0005111).
PBS/LPS-instilled CFZ- or control mice were euthanized by exsanguination while deeply anesthetized with an intraperitoneal injection of ketamine/xylazine. The trachea was surgically exposed and cannulated with an 18 G needle and the lungs were lavaged by instilling 1 ml DPBS (Life Technologies) containing 0.5 mM EDTA (Sigma). The retrieved BAL was then centrifuged (10 min at 400×g, 4° C.), and the supernatant was frozen (−80° C.), while the cell pellets were resuspended in 1 ml RPMI 1640 media (Life Technologies). To count total cells, the cells were stained with Trypan blue and counted using a hemocytometer. […]

RAW 264.7 cells = assay: MitoTracker Red live cell staining (mitochondrial membrane potential); type: cell-based, murine; conditions: 10 μM
Protocol: Cells were cultured with CFZ or CLDI media for 24 h in chamber slides (Lab Tek) and stained with 150 nM of MitoTracker Red CMXRos (MTR, Life Technologies) in fresh media for 45 min, and then NucBlue Live Cell Stain (Life Technologies) was applied for 10 min for nuclear staining. After incubation, extracellular MTR and NucBlue were washed twice with DPBS and the cells were visualized on a Nikon Eclipse Ti fluorescence microscope (Japan) using Texas Red (Mitotracker) and DAPI (NucBlue) filters. Real-time live cell images were captured every 10 sec for 30 min with the same microscope and video was created using the Nikon Elements software. For confocal imaging of intracellular CLDIs, FM 1-43 (Life Technologies) was used at 3.5 μM (15 min at 37° C.) for membrane staining followed by NucBlue (10 min). After washing with DPBS, cells were visualized using laser-scanning confocal microscopy (Olympus Fluoview 500) fitted with argon (FITC) and HeNe Red lasers (Cy5). Images were taken along the z-axis with a 60× objective at 0.25 μm intervals and the composite Z-stack images were created using the Nikon Elements software.

Akt = assay: Western blot of Akt phosphorylated at Ser473; type: cell-based, murine; conditions: RAW 264.7 cells, 24 h
Protocol: The murine macrophage cell line RAW 264.7 was purchased from ATCC (Manassas, Va.) and maintained in DMEM (Life Technologies, Carlsbad, Calif.) supplemented with 10% FBS. Soluble CFZ or isolated CLDIs were added at various concentrations in DMEM with 5% FBS to 6-well plates containing 4×10^5 cells/well and incubated (24 h at 37° C. and 5% CO2). Culture supernatants were harvested at 24 h, centrifuged (1500×g for 5 min), and stored (−20° C.) in frozen aliquots prior to analysis. For experiments involving TLR stimulation, cells were washed twice with pre-warmed DPBS to remove extracellular, non-phagocytosed CLDIs or CFZ, and then the cells were serum-starved for 18 h in DMEM. Supernatants were collected from unstimulated cells and cells stimulated with 200 ng/ml Pam3 or 1 μg/ml LPS in DMEM.

[1] = tested on: carrageenan-induced footpad inflammation; assay: Carrageenan foot edema test; type: in vivo, mice
Protocol: as §1
Foot inflammation in response to carrageenan injection was conducted in CFZ and control mice as previously described (Otterness I G, et al., Moore P F (1988) Immunochemical Techniques Part L: Chemotaxis and Inflammation (Elsevier) doi:10.1016/0076-6879(88)62086-6). In brief, the volume of each hind paw was measured with a caliper before and after the intraplantar injection of 30 μl 2% carrageenan ([…]) in PBS or equal volume of PBS in the contralateral paw. Paw swelling was measured at 4 and 48 h after injection, after which the animals were euthanized by exsanguination while deeply anesthetized with an intraperitoneal injection of ketamine (100 mg/kg) and xylazine (10 mg/kg), and the skin tissues of the plantar region were harvested for cytokine assay (see below).

## CC(C)/N=c1\cc2n(-c3ccc(Cl)cc3)c3ccccc3nc-2cc1Nc1ccc(Cl)cc1 [CFZ, 3-(p-chloroanilino)-10-(p-chlorophenyl)-2, 10-dihydro-2-isopropyliminophenazine]
Alveolar macrophages; C57BL/6 (wild-type)
  CLDI+ alveolar macrophages: 65%
Alveolar macrophages; IL-1RA−/−
  CLDI+ alveolar macrophages: 60%
RAW 264.7 cells
  mitochondrial membrane potential (Mitotracker Red staining): diffuse cytoplasmic MTR staining, indicative of mitochondrial membrane depolarization
  nuclear MTR signal vs untreated cells: 4 fold
Akt
  phosphorylation of Akt: minimally affected phosphorylation of Akt
[1]; 2 weeks of CFZ treatment, 48 h
  footpad homogenate IL-1RA levels: reduced
[1]; 2 weeks of CFZ treatment, 48 h (legend: 4 and 48 h)
  paw swelling vs untreated mice: only a modest reduction in paw swelling; also recorded: only a minor reduction in swelling at 4 and 48 h
[1]; 8 week CFZ-treated, 4 h post-injection
  reduction in paw swelling vs untreated mice: 57%
[1]; 8 week CFZ-treated, 4 h post-injury
  plasma IL-1RA levels after carrageenan: rapidly declined at 4 h post-injury
[1]; 8 week CFZ-treated, 48 h
  footpad homogenate IL-1RA levels: increased
  footpad homogenate IL-1β and TNFα levels: dramatically reduced
[1]; 8 week CFZ-treated, 48 h post-injection
  paw swelling vs untreated mice: strikingly reduced swelling
[1]; IL-1RA KO mice, 6 weeks CFZ
  anti-inflammatory effect (paw swelling): greatly diminished in IL-1RA KO mice
[1]; WT mice, 6 weeks CFZ
  paw swelling: reduced swelling compared to untreated and injured mice
[1]; WT mice, 6 weeks CFZ, injured
  footpad IL-1β levels: significantly reduced
[1]; all mice, ELISA detection limit
  plasma levels of TNFα and IL-1β: < 15 pg/mL
